Data from patent publication US5968933A, “DNA-targeted alkylating agents” (Auckland Division Cancer Society of New Zealand Inc., priority 1994, dated 1999).
Read-outs that look alike come from different tables or passages of the source.

How the values were obtained:
[1] = tested on: P388 cells; experiment: Growth inhibition in vitro, P388 leukaemia; type: cell-based, murine
Description: (§1) Representative examples of compounds of the invention were tested for biological activity against tumors. Compounds 1 to 6 and 14 to 21, prepared as described above, were tested for their ability to inhibit growth in vitro of cells of the wild-type murine leukaemia cell line P388, and the cell line AA8 which is derived from Chinese hamster ovary cells. For each compound, the IC50, ie. the concentration of compound which inhibited cell growth in treated cultures to 50% of that of controls, was determined, using means of three determinations. In addition, a hypersensitivity factor was determined by comparing activity of the compounds against AA8 cells to activity against UV4. The latter cell line is deficient in aspects of the excision repair pathway for removing DNA adducts, and is hypersensitive to DNA-alkylating agents, especially interstrand crosslinking agents. Previous work has shown that the ratio of IC50 s determined in the wild-type AA8 and mutant UV4 lines (the hypersensitivity factor HF) is a determinant of the mode of cell killing by alkylating agents (Palmer, B. D. et al, J. Med. Chem., 1990 33 112-121; Wilson, W. R. et al, J. Med. Chem., 1989 32 31-38). Compounds with HFs of ca. 1 are unlikely to kill cells via DNA alkylation events. Compounds which show high HF values are likely to form bulky adducts or cross-links,with the latter being especially likely for compounds showing the highest HF values (>ca. 25) (Wilson et al, op. cit.).
(§2) Cell lines were maintained in exponential growth phase by subculturing in RPMI 1640 (P338) or Alpha MEM (AA8, UV4) containing 10% fetal calf serum, as previously described (Palmer et al, op.cit.; Baguley, B. C. and Wilson, W. R., Eur. J. Cancer Clin. Oncol., 1987 23 607-613). IC50 values were determined using log-phase cultures in 96-well microculture plates, and were calculated as the nominal drug concentration required to reduce the cell density to 50% of control values, using 8 control cultures on each microplate. For P388 cultures, drug was present throughout the growth period (72 h), and final cell densities were determined using a minor modification of the MTT method of Mossman (Mossman, T., J. Immunol. Methods, 1983 65 55-63). For AA8 and UV4 cultures, drug exposure was terminated after 18 h by washing three times with fresh medium. Cultures were then grown for a further 72 h before determining cell density by staining with methylene blue (Finlay, G. J. et al, Anal. Biochem., 1984 139 272-277).

[2] = tested on: S. typhimurium TA98; experiment: Bacterial mutagenicity, plate incorporation assay, TA98; conditions: mean ± SD
[3] = tested on: AA8 and UV4 cells; experiment: Hypersensitivity factor (AA8/UV4 IC50 ratio); type: cell-based, Chinese hamster; conditions: ratio of IC50s AA8/UV4
Description: as §1, §2

[4] = tested on: P338 murine leukaemia; type: in vivo, mice; conditions: for Optimal dose: single i.p. dose; for % Increase in lifespan: single i.p. dose 24 h after tumour inoculation, at optimal dose (mg/kg: 1 30; 2 30; 3 13.3; 4 3.9; 5 5.9; 6 8.9)
[5] = tested on: calf thymus DNA; experiment: Reversible DNA binding by spectrophotometric Scatchard analysis; conditions: 20° C., 0.01M HEPES buffer, pH 7.00
[6] = tested on: AA8 cells; experiment: Growth inhibition in vitro, AA8; type: cell-based, Chinese hamster
Description: as §1, §2

[7] = tested on: calf thymus DNA; experiment: Rate of alkylation of calf thymus DNA by increase in DNA-bound fluorescence; type: biochemical; design: unit not given here
[8] = tested on: S. typhimurium TA100; experiment: Bacterial mutagenicity, plate incorporation assay, TA100; conditions: mean ± SD
[9] = tested on: linearized pSV2gpt DNA; experiment: DNA crosslinking assay (agarose gel electrophoresis of linearized plasmid); type: biochemical; conditions: 2 h at 30° C., TE-80 buffer pH 8
Description: The ability of representative compounds of the invention to bind to and cross-link DNA was examined. This was carried out by agarose gel electrophoresis of plasmid DNA using linearized pSV2gpt DNA (Tindall, K. R. and Stankowski, L. F.; Mutation Research, 1989 220 241-245) and the method reported by Valu et al, 1990, op.cit. Briefly, linearized pSV2gpt DNA (1 μL of a 1 mg/mL solution) was incubated with drug in TE-80 buffer (10 mM Tris.HCl, 1 mM EDTA at pH 8), shielded from ambient light, for 2 h at 30° C., then denatured by the addition of […] of 1% sodium dodecyl sulfate and 10 μL of 50 mM methylmercury hydroxide and incubated for a further 30 min at 20° C. in the dark. Renaturation of drug-treated DNA samples was carried out by incubation with 2.5 μL of 2-mercaptoethanol for 1 h. Samples were prepared for electrophoresis by the addition of 0.1 mg/mL bromophenol blue, 0.5 μg/mL ethidium bromide and 5 μL of 40% sucrose. Electrophoresis was carried out at 120V in 89 mM tris/borate buffer at pH 8 containing 2 mM EDTA and 0.5 μg/mL ethidium bromide. DNA was visualized using 302 nm trans-illumination, and was photographed using Polaroid type 55 film and a Wratten 3A filter.
After drug treatment, DNA is denatured to the single stranded form, which runs as a lower band in the gels (see lanes 1 and 2 in FIG. 1). Cross-linking by the drugs is evidenced by the appearance of increasing amounts of renatured, double stranded DNA, as shown by the upper band in the gels, corresponding to the band for untreated DNA seen in lane 1.

[10] = tested on: S. typhimurium TA102; experiment: Bacterial mutagenicity, plate incorporation assay, TA102; conditions: mean ± SD
[11] = 80 μg/plate, square brackets: toxicity becoming apparent
[12] = 120 μg/plate, square brackets: toxicity becoming apparent
[13] = P388 cells, 72 h, MTT, read-out: IC50
[14] = 40 μg/plate, square brackets: toxicity becoming apparent

In the case of CCN(CCCl)c1ccc(CCCCCCc2nc3ccc(-c4nc5ccc(N6CCN(C)CC6)cc5[nH]4)cc3[nH]2)cc1 [Compound 16, 2-[2-[6-[4-(N-ethyl-N-(2-chloroethyl)amino)phenyl]hexyl]-5-benzimidazolyl]-5-(1-methyl-4-piperazinyl)benzimidazole], the IC50 ([1]; Mus musculus, P388, 72 h) is reported as 370 nM.

CN1CCN(c2ccc3nc(-c4ccc5nc(Cc6ccc(N(CCCl)CCCl)cc6)[nH]c5c4)[nH]c3c2)CC1 [Compound 3, 2-[2-[[4-(N,N-bis(2-chloroethyl)amino)phenyl]methyl]-5-benzimidazolyl]-5-(1-methyl-4-piperazinyl)benzimidazole] was tested, and the “reversion colonies, TA98” value ([2]; 4 μg/plate) was 71 ± 2, the “reversion colonies, TA98” value ([2]; 10 μg/plate) was 83 ± 1 and the “reversion colonies, TA98” value ([2]; 20 μg/plate) was 87 ± 6. For the same compound, the “reversion colonies, TA98” value ([2]; 40 μg/plate) was 86 ± 5, the “reversion colonies, TA98” value [2, 11] was 77 ± 10 and the “reversion colonies, TA98” value [2, 12] was 86 ± 8. For the same compound, the Hypersensitivity factor [3] was 59, the “in vivo antitumour activity” value ([4]; P388, single-dose protocol) was “retained significant in vivo activity” and the Optimal dose [4] was 13.3 mg/kg. For the same compound, the “% Increase in lifespan” value [4] was 71%, the IC50 [1, 13] was 850 nM and the “Site size (Number of nucleotide residues)” value [5] was 3.0 nucleotide residues. For the same compound, the IC50 ([6]; AA8 cells, 18 h exposure, then 72 h growth, methylene blue, read-out: IC50) was 1500 nM, the “Rate constant for alkylation” value [7] was 3.01 × 10^4 and the “reversion colonies, TA100” value ([8]; 4 μg/plate) was 154 ± 8. For the same compound, the “reversion colonies, TA100” value ([8]; 10 μg/plate) was 130 ± 10, the “reversion colonies, TA100” value ([8]; 20 μg/plate) was 137 ± 43 and the “reversion colonies, TA100” value ([8]; 40 μg/plate) was 167 ± 24. For the same compound, the “reversion colonies, TA100” value ([8]; 80 μg/plate) was 167 ± 8, the “reversion colonies, TA100” value [8, 12] was 157 ± 12 and the Cross-linking [9] was “No”. The “reversion colonies, TA102” value ([10]; 4 μg/plate) was 297 ± 38, the “reversion colonies, TA102” value ([10]; 10 μg/plate) was 237 ± 64 and the “reversion colonies, TA102” value ([10]; 20 μg/plate) was 304 ± 16. The “reversion colonies, TA102” value [10, 14] was 268 ± 59 and the “reversion colonies, TA102” value [10, 12] was 505 ± 121.

With CN1CCN(c2ccc3nc(-c4ccc5nc(-c6ccc(N(C)CCCl)cc6)[nH]c5c4)[nH]c3c2)CC1 [Compound 1, 2-[2-[4-(N-methyl-N-(2-chloroethyl)amino)phenyl]-5-benzimidazolyl]-5-(1-methyl-4-piperazinyl)benzimidazole] the “reversion colonies, TA98” value ([2]; 4 μg/plate) was 70 ± 3, the “reversion colonies, TA98” value ([2]; 10 μg/plate) was 62 ± 7 and the “reversion colonies, TA98” value ([2]; 20 μg/plate) was 67 ± 9. The “reversion colonies, TA98” value ([2]; 40 μg/plate) was 52 ± 7, the “reversion colonies, TA98” value [2, 11] was 65 ± 3 and the Hypersensitivity factor [3] was 14. The Optimal dose [4] was 30 mg/kg, the “% Increase in lifespan” value [4] was 86% and the IC50 ([1]; Mus musculus, P388, 72 h) was 500 nM. For the same compound, the IC50 ([6]; Cricetulus griseus, CHO-AA8) was 5750 nM, the “reversion colonies, TA100” value ([8]; 4 μg/plate) was 196 ± 23 and the “reversion colonies, TA100” value ([8]; 10 μg/plate) was 162 ± 21. The “reversion colonies, TA100” value ([8]; 20 μg/plate) was 172 ± 13, the “reversion colonies, TA100” value ([8]; 40 μg/plate) was 226 ± 23 and the “reversion colonies, TA100” value ([8]; 80 μg/plate) was 207 ± 12. The “reversion colonies, TA102” value ([10]; 4 μg/plate) was 406 ± 20, the “reversion colonies, TA102” value ([10]; 10 μg/plate) was 417 ± 26 and the “reversion colonies, TA102” value ([10]; 20 μg/plate) was 442 ± 62. For the same compound, the “reversion colonies, TA102” value [10, 14] was 442 ± 43.

With CCN(CCCl)c1ccc(CCc2nc3ccc(-c4nc5ccc(N6CCN(C)CC6)cc5[nH]4)cc3[nH]2)cc1 [Compound 15, 2-[2-[2-[4-(N-Ethyl-N-(2-chloroethyl)amino)phenyl]ethyl]-5-benzimidazoyl]-5-(1-methyl-4-piperazinyl)benzimidazole] the IC50 ([1]; Mus musculus, P388, 72 h) was 120 nM.

CCN(CCCl)c1cccc(CCCc2nc3ccc(-c4nc5ccc(N6CCN(C)CC6)cc5[nH]4)cc3[nH]2)c1 [Compound 19, 2-[2-[3-[3-(N-ethyl-N-(2-chloroethyl)amino)phenyl]propyl]-5-benzimidazolyl]-5-(1-methyl-4-piperazinyl)-benzimidazole] gave an IC50 ([1]; Mus musculus, P388, 72 h) of less than 60 nM.

Compound CCN(CCCl)c1ccc(CCCc2nc3ccc(-c4nc5ccc(N6CCN(C)CC6)cc5[nH]4)cc3[nH]2)cc1 [Compound 14] has an IC50 ([1]; Mus musculus, P388, 72 h) of 740 nM.

CCN(CCCl)c1ccccc1CCCc1nc2ccc(-c3nc4ccc(N5CCN(C)CC5)cc4[nH]3)cc2[nH]1 [Compound 21, 2-[2-[3-[2-(N-ethyl-N-(2chloroethyl)amino)phenyl]propyl]-5-benzimidazolyl]-5-(1-methyl-4-piperazinyl)-benzimidazole] showed an IC50 ([1]; Mus musculus, P388, 72 h) of less than 60 nM.

CN1CCN(c2ccc3nc(-c4ccc5nc(CCCc6ccccc6N(CCCl)CCCl)[nH]c5c4)[nH]c3c2)CC1 [Compound 20] was tested, and the IC50 [1, 13] was 610 nM.

Work on CN1CCN(c2ccc3nc(-c4ccc5nc(CCCc6cccc(N(CCCl)CCCl)c6)[nH]c5c4)[nH]c3c2)CC1 [Compound 18] yielded an IC50 [1, 13] greater than 1000 nM.

CCN(CCCl)c1ccc(Cc2nc3ccc(-c4nc5ccc(N6CCN(C)CC6)cc5[nH]4)cc3[nH]2)cc1 [Compound 17, 2-[2-[[4-(N-ethyl-N-(2-chloroethyl)amino)phenyl]methyl]-5-benzimidazoyl]-5-(1-methyl-4-piperazinyl)benzimidazole] showed an IC50 ([1]; Mus musculus, P388, 72 h) of 90 nM.
